The source of these data is patent US4628047A (priority 1982, dated 1986).

The test system of assay [1] is P388 leukemia cells having resistance to vincristine. Nature of the assay: Growth inhibition of VCR-resistant P388 leukemia cells (P388/VCR). The format is cell-based. The note with it: on VCR, P388/VCR.
Another assay deals with P388 leukemia cells. Briefly: Growth inhibition of non-resistant P388 leukemia cells. It counts as cell-based. The note with it: for IC50: Mus musculus, P388, ADM.
The test system of a further assay is P388/ADM. Nature of the assay: Growth inhibition of ADM-resistant P388 leukemia cells (P388/ADM). The note with it: for Enhancement effect: on ADM; for IC50: Mus musculus. It counts as cell-based.
The test system of a further assay is K562. Nature of the assay: Growth inhibition of K562 leukemia cells. The note with it: on VCR. The format is cell-based, human.
Another assay concerns K562/VCR. Nature of the assay: Growth inhibition of VCR-resistant K562 leukemia cells (K562/VCR). The format is cell-based, human. The note with it: on VCR.
In assay [2] the test system is P388 leukemia cells having no resistance or resistance to VCR and ADM and human leukemia cells K562. Briefly: Antitumor enhancement effects of diltiazem in resistant and non-resistant tumor cells (summary). The format is cell-based. The note with it: regardless of whether the tumor cells are non-resistant or resistant. The source says: Antitumor enhancement effects of diltiazem in resistant and non-resistant tumor cells: […]

In brackets after ≈: the same amount, converted by molar mass. Like-named read-outs stand apart in the source and are kept apart here.

As for `COc1ccc([C@@H]2Sc3ccccc3N(CCN(C)C)C(=O)[C@@H]2OC(C)=O)cc1` [Diltiazem, d-3-acetoxy-cis-2,3-dihydro-5-[2-(dimethylamino)ethyl]-2-(p-methoxyphenyl)-1,5-benzothiazepin-4(5H)-one], the Enhancement effect is listed as 9.7 in assay [1] (diltiazem 10 μM); 28.8 in assay [1] (diltiazem 35 μM); 54.0 in assay [1] (diltiazem 100 μM); 1.3 in the assay with P388 leukemia cells (on ADM, diltiazem 10 μM); 1.4 in the assay on P388 leukemia cells (on ADM, diltiazem 35 μM); 1.7 in the assay on P388 leukemia cells (on ADM, diltiazem 100 μM). Further, the Enhancement effect in the assay on P388 leukemia cells (on VCR, diltiazem 10 μM) was found to be 1.3; with P388 leukemia cells (on VCR, diltiazem 35 μM), 3.4; with P388 leukemia cells (on VCR, diltiazem 100 μM), 4.2; in the assay with P388/ADM (diltiazem 10 μM) it was 4.5; in the assay with P388/ADM (diltiazem 35 μM), 11.0; in the assay on P388/ADM (diltiazem 100 μM), 19.3. The Enhancement effect amounted to 1.5 with K562 (diltiazem 10 μM); 2.3 in the assay on K562 (diltiazem 35 μM); 3.4 in the assay with K562 (diltiazem 100 μM); 8.7 with K562/VCR (diltiazem 10 μM); 48.8 in the assay on K562/VCR (diltiazem 35 μM); 77.8 in the assay on K562/VCR (diltiazem 100 μM). Also, the “antitumor activity of the agents (ADM, VCR)” value in assay [2] was “the antitumor activity of the agents is enhanced by diltiazem”.

As for `COc1cccc2c1C(=O)c1c(O)c3c(c(O)c1C2=O)C[C@@](O)(C(=O)CO)C[C@@H]3O[C@H]1C[C@H](N)[C@H](O)[C@H](C)O1` [ADM, doxorubicin], the IC50 is 0.01 ± 0.0021 µg/mL (≈ 0.0184 µM) with P388 leukemia cells (diltiazem 0 μM); 0.0077 ± 0.0036 µg/mL (≈ 0.0142 µM) in the assay with P388 leukemia cells (with diltiazem 10 μM); 0.0069 ± 0.0007 µg/mL (≈ 0.0127 µM) in the assay on P388 leukemia cells (with diltiazem 35 μM); 0.006 ± 0.0004 µg/mL (≈ 0.011 µM) in the assay on P388 leukemia cells (with diltiazem 100 μM); 0.592 ± 0.0768 µg/mL (≈ 1.09 µM) with P388/ADM (ADM, diltiazem 0 μM); 0.133 ± 0.0184 µg/mL (≈ 0.245 µM) with P388/ADM (ADM, with diltiazem 10 μM). Moreover, the IC50 is 0.0537 ± 0.0031 µg/mL (≈ 0.0988 µM) with P388/ADM (ADM, with diltiazem 35 μM); 0.0307 ± 0.0041 µg/mL (≈ 0.0565 µM) in the assay on P388/ADM (ADM, with diltiazem 100 μM); around 0.03 µg/mL (≈ 0.0552 µM) in the assay on P388/ADM (read-out: concentration of doxorubicin showing 50% inhibition of the cells, with diltiazem 100 μM); 0.592 µg/mL (≈ 1.09 µM) with P388/ADM (read-out: dose for showing 50% inhibition of the tumor cells, doxorubicin alone). Besides, the Enhancement effect with P388 leukemia cells (on ADM, diltiazem 0 μM) stood at 1; in the assay on P388/ADM (diltiazem 0 μM), 1.
